According to PubChem BioAssay (NCI):
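1) Cells in 96-well plates. 2) Compound, 48 h, 5 concentrations. 3) Linear interpolation between surrounding doses. 4) Unreached endpoint = highest concentration. TGI denotes the concentration required for complete inhibition of growth.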

Key:
Assay in all cases: inhibition of tumour cell growth, NCI panel, 48 h
786-0 renal = test system: 786-0 renal
IGROV1 ovarian = test system: IGROV1 ovarian
M14 melanoma = test system: M14 melanoma
MALME-3M melanoma = test system: MALME-3M melanoma
RPMI-8226 leukemia = test system: RPMI-8226 leukemia
SF-268 CNS = test system: SF-268 CNS
SF-295 CNS = test system: SF-295 CNS
SK-MEL-28 melanoma = test system: SK-MEL-28 melanoma
SK-MEL-5 melanoma = test system: SK-MEL-5 melanoma
SN12C renal = test system: SN12C renal
SNB-75 CNS = test system: SNB-75 CNS

Structure (SMILES)	TGI (786-0 renal) [µM]	TGI (IGROV1 ovarian) [µM]	TGI (M14 melanoma) [µM]	TGI (MALME-3M melanoma) [µM]	TGI (RPMI-8226 leukemia) [µM]	TGI (SF-268 CNS) [µM]	TGI (SF-295 CNS) [µM]	TGI (SK-MEL-28 melanoma) [µM]	TGI (SK-MEL-5 melanoma) [µM]	TGI (SN12C renal) [µM]	TGI (SNB-75 CNS) [µM]
CC1OC2=N[C@@H]1C(=O)N[C@@H](C(C)C)C1=N[C@H](C(=O)N[C@@H](C(C)C)C3=N[C@H](C(=O)N[C@@H](C(C)C)C4=N[C@H](C(=O)N[C@H]2C(C)C)C(C)O4)C(C)O3)C(C)O1 (stereo not given in full)	> 10	> 10	> 10	> 10	> 10	> 10	> 10	> 10	> 10	> 10	> 10
NC(=S)N/N=C\c1ccc(OCc2cccc(COc3ccc(/C=N/NC(N)=S)cc3)n2)cc1	> 100	> 100	> 100	> 100	> 100	> 100	> 100	> 100	24.4	> 100	> 100
Cc1ccncc1.F[B-](F)(F)F.[Pt+2].c1ccc(-c2cccc(-c3ccccn3)n2)nc1	46.4	> 30.6	13.5	20.1	32.9	> 60	7.74	> 100	21.7	> 100	> 89.7
CC[N+](C)(CC)CCC(O)(c1ccccc1)c1ccccc1	> 100	> 100	> 100	> 100	> 100	> 100	> 100	> 100	> 100	> 100	> 100
COc1cccc(CC(C)NCC(O)c2ccc(O)c(O)c2)c1 (stereo not given)	> 100	> 100	> 100	> 100	> 100	> 100	> 100	> 100	> 100	83.8	> 100
Cc1ccc(C2=NOC(=O)[C@@H]3CCCC[C@@H]23)cc1	> 100	> 100	> 100	> 100	> 100	> 100	> 100	> 100	> 100	> 100	> 100
O=[N+]([O-])c1ccc2nc(-c3ccccn3)c(-c3ccccn3)nc2c1	> 100	> 100	> 100	> 100	> 100	> 100	> 100	> 100	> 100	> 100	> 100
O=C1NC(=O)/C(=C/c2ccc(S(=O)(=O)N/N=C/c3ccc(Cl)cc3)cc2)N1	> 100	> 100	> 100	> 100	> 100	> 100	> 100	> 100	> 100	> 100	> 100
CC1(C)OCC(C(O)C2OC(C)(C)OC2C=O)O1 (stereo not given)	> 100	> 100	> 100	> 100	> 100	> 100	> 100	> 100	> 100	> 100	> 100
CCOC(=O)c1c(N2CCCC2)ncn(-c2ccccc2)c1=S	> 100	> 100	> 100	> 100	> 100	> 100	> 100	> 100	> 100	> 100	> 100
COC1OC(Cc2nnc(C)o2)C(OCc2ccccc2)C(OCc2ccccc2)C1OCc1ccccc1 (stereo not given)	> 100	52.4	> 100	38.9	> 100	46.3	52.6	45.3	30	85.3	> 100
CN1CCN(c2c(Cl)cc(Cl)c3[nH]c4ccccc4c(=O)c23)CC1	> 43.3	20.3	19.5	6.67	56.8	20.2	20.3	26.8	31.9	21.5	22.5
Cc1cc(=O)n2nc(SCc3ccccc3)sc2n1	> 100	> 100	> 100	> 100	> 100	> 100	> 100	> 100	> 100	> 100	> 100
CN(C)/N=C/c1cn(C)c(=O)n(C)c1=O	> 100	> 100	> 100	> 100	> 100	> 100	> 100	> 100	> 100	> 100	> 100
c1ccc(CCN2CCc3[nH]c4ccccc4c3C2)cc1	31.6	67.8	34	32.8	> 10	> 100	35.2	41.8	33.9	62.2	68
COc1cc2c(cc1OCCCC(=O)Nc1cc(C(=O)Nc3cc(C(=O)Nc4cc(C(=O)NCCCN(C)C)n(C)n4)n(C)n3)n(C)n1)N=CC1CCCN1C2=O (stereo not given)	> 100	7.98	95.2	25.5	> 100	89.3	86.6	30.7	47.4	42.3	52.6
O=C(CCN1CCCC1)Nc1ccc2sc3ccccc3c(=O)c2n1	17.5	23.6	17.6	17.6	21.9	> 31.6	27.8	19.9	16.4	21.3	18.2
C(=C\c1cccc(/C=C/c2ccccn2)n1)/c1ccccn1	> 100	> 100	> 100	39.9	> 100	37.2	> 100	> 100	> 100	> 100	> 100
CN(C)CCNC(=O)c1ccc(NCCCN(C)CCCNc2ccc3c(=O)n(CCN(C)C)c(=O)n4c5ccccc5c(=O)c2c34)c2c(=O)c3ccccc3[nH]c12	0.11	1.16	0.67	0.453	0.157	0.326	1.06	1.34	1.22	0.262	0.0449
CCOP(=O)(OCC)C(Nc1cccc(F)c1)c1ccccc1 (stereo not given)	> 100	> 100	> 100	> 100	> 100	> 100	> 100	> 100	> 100	> 100	> 100
CCOC(=O)C1(C(=O)OCC)[C@H](c2ccccc2)C2=NO[C@@H]3CCC[C@H]1[C@H]23	> 100	> 100	> 100	> 100	> 100	> 100	> 100	> 100	> 100	> 100	> 100
Nc1nc(-c2ccccc2N=NN2CCCC2)nc2ccccc12	4.77	17.3	12.5	13.5	6.46	21.5	10.5	25.2	17.8	3.43	23.8
CC[N+]1(C)CCC(O)(/C=C/c2ccc(OC)cc2)C(C(=O)/C=C/c2ccc(OC)cc2)C1 (stereo not given)	> 25.8	47.1	30.8	34.6	1.04	> 59.7	39.1	31.7	31.9	> 58.5	40.6
N=C1N(S(=O)(=O)c2ccccc2)[C@@H](Cc2ccccc2)[C@H](c2ccccc2)C1(c1ccccc1)c1ccccc1	> 100	> 100	> 100	> 100	> 100	> 100	> 100	> 100	> 100	> 100	> 100
CCNc1ccc2c(c1)Cc1ccccc1-2	> 100	> 100	> 100	> 100	> 100	> 100	> 100	> 100	> 100	> 100	> 100
